Key:
Type in all cases: in vivo
[1] = system: barnyardgrass (Echinochloa crusgalli, ECHCG); assay: Post-emerge greenhouse herbicide test, phytotoxicity rating; conditions: 14 days after application
Procedure, shortened: (§1)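 Compounds in acetone with 0.25% v/v non-ionic surfactant were track-sprayed at 187 l/ha over plants at the 2-3 leaf stage, at 63 to 1000 g ai/ha. Pots were bottom-watered. Injury was scored visually 14 days later on a 0-100 scale, where 0 is no damage and 100 is complete plant death.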

[2] = system: redroot pigweed (Amaranthus retroflexus, AMARE); assay: as above; conditions: 14 days after application
Procedure, shortened: as §1

[3] = system: lambsquarters (Chenopodium album, CHEAL); assay: as above; conditions: 14 days after application
Procedure, shortened: as §1

[4] = system: large crabgrass (Digitaria sanguinalis, DIGSA); assay: as above; conditions: 14 days after application
Procedure, shortened: as §1

[5] = system: Johnsongrass (Sorghum halepense, SORHA); assay: as above; conditions: 14 days after application
Procedure, shortened: as §1

[6] = system: velvetleaf (Abutilon theophrasti, ABUTH); assay: as above; conditions: 14 days after application
Procedure, shortened: as §1

[7] = system: green foxtail (Setaria viridis, SETVI); assay: as above; conditions: 14 days after application
Procedure, shortened: as §1

[8] = system: ivyleaf morningglory (Ipomoea hederacea, IPOHE); assay: as above; conditions: 14 days after application
Procedure, shortened: as §1

[9] = system: upland rice (Oryza sp., var.Tebonnet, RICE); assay: Pre-emerge greenhouse test, crop damage rating; conditions: 14 days after application, rating scale 0-100
Procedure, shortened: (§2)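 Seeds sown in sandy loam mix one day before track-sprayer application of compounds in acetone at 125–1000 g ai/ha (187 l/ha), then surface-watered to incorporate and bottom-watered. Visual rating 14 days after application on a 0–100 scale (0 = no damage, 100 = all plants dead).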

[10] = system: field corn (Zea mays L., var. Dekalb 535, CORN); assay: Pre-emerge greenhouse test, crop damage rating; conditions: 14 days after application, rating scale 0-100
Procedure, shortened: as §2

[11] = system: soybean (Glycine max L., var. Pella 86, SOY); assay: Pre-emerge greenhouse test, crop damage rating; conditions: 14 days after application, rating scale 0-100
Procedure, shortened: as §2

[12] = system: soybean (Glycine max L., var. Pella 86, SOY); assay: Post-emerge greenhouse test, crop damage rating; conditions: 14 days after application
Procedure, shortened: as §1

[13] = system: barnyardgrass (Echinochloa crusgalli, ECHCG); assay: Pre-emerge greenhouse herbicide test, phytotoxicity rating; conditions: 14 days after application, rating scale 0-100
Procedure, shortened: as §2

[14] = system: redroot pigweed (Amaranthus retroflexus, AMARE); assay: as above; conditions: 14 days after application, rating scale 0-100
Procedure, shortened: as §2

[15] = system: lambsquarters (Chenopodium album, CHEAL); assay: as above; conditions: 14 days after application, rating scale 0-100
Procedure, shortened: as §2

[16] = system: large crabgrass (Digitaria sanguinalis, DIGSA); assay: as above; conditions: 14 days after application, rating scale 0-100
Procedure, shortened: as §2

[17] = system: Johnsongrass (Sorghum halepense, SORHA); assay: as above; conditions: 14 days after application, rating scale 0-100
Procedure, shortened: as §2

[18] = system: velvetleaf (Abutilon theophrasti, ABUTH); assay: as above; conditions: 14 days after application, rating scale 0-100
Procedure, shortened: as §2

[19] = system: common ragweed (Ambrosia artemisiifolia L., AMBEL); assay: as above; conditions: 14 days after application, rating scale 0-100
Procedure, shortened: as §2

[20] = system: green foxtail (Setaria viridis, SETVI); assay: as above; conditions: 14 days after application, rating scale 0-100
Procedure, shortened: as §2

[21] = system: sicklepod (Cassia obtusifolia, CASOB); assay: as above; conditions: 14 days after application, rating scale 0-100
Procedure, shortened: as §2

[22] = system: ivyleaf morningglory (Ipomoea hederacea, IPOHE); assay: as above; conditions: 14 days after application, rating scale 0-100
Procedure, shortened: as §2

[23] = system: common ragweed (Ambrosia artemisiifolia L., AMBEL); assay: Post-emerge greenhouse herbicide test, phytotoxicity rating; conditions: 14 days after application
Procedure, shortened: as §1

[24] = system: upland rice (Oryza sp., var.Tebonnet, RICE); assay: Post-emerge greenhouse test, crop damage rating; conditions: 14 days after application
Procedure, shortened: as §1

[25] = system: field corn (Zea mays L., var. Dekalb 535, CORN); assay: Post-emerge greenhouse test, crop damage rating; conditions: 14 days after application
Procedure, shortened: as §1

## Cn1nc(-c2cc(Oc3cccc(F)n3)c(Cl)cc2F)c(Cl)c1C(F)(F)F [Compound 1-5]
[1]; 63 g al/ha
  ECHCG phytotoxicity rating (0-100): 30
[1]; 500 g al/ha
  ECHCG phytotoxicity rating (0-100): 100
[2]; 63 g al/ha
  AMARE phytotoxicity rating (0-100): 100
[2]; 500 g al/ha
  AMARE phytotoxicity rating (0-100): 100
[3]; 63 g al/ha
  CHEAL phytotoxicity rating (0-100): 95
[3]; 500 g al/ha
  CHEAL phytotoxicity rating (0-100): 100
[4]; 63 g al/ha
  DIGSA phytotoxicity rating (0-100): 50
[4]; 500 g al/ha
  DIGSA phytotoxicity rating (0-100): 99
[5]; 63 g al/ha
  SORHA phytotoxicity rating (0-100): 30
[5]; 500 g al/ha
  SORHA phytotoxicity rating (0-100): 95
[6]; 63 g al/ha
  ABUTH phytotoxicity rating (0-100): 30
[6]; 500 g al/ha
  ABUTH phytotoxicity rating (0-100): 100
[7]; 63 g al/ha
  SETVI phytotoxicity rating (0-100): 0
[7]; 500 g al/ha
  SETVI phytotoxicity rating (0-100): 100
[8]; 63 g al/ha
  IPOHE phytotoxicity rating (0-100): 95
[8]; 500 g al/ha
  IPOHE phytotoxicity rating (0-100): 100
[9]; 125 g ai/ha
  crop damage rating RICE: 30
[9]; 500 g ai/ha
  crop damage rating RICE: 20
[10]; 125 g ai/ha
  crop damage rating CORN: 20
[10]; 500 g ai/ha
  crop damage rating CORN: 30
[11]; 125 g ai/ha
  crop damage rating SOY: 0
[11]; 500 g ai/ha
  crop damage rating SOY: 0
[12]; 63 g al/ha
  SOY crop damage rating (0-100): 40
[12]; 500 g al/ha
  SOY crop damage rating (0-100): 90
[13]; 125 g ai/ha
  phytotoxicity rating ECHCG: 50
[13]; 500 g ai/ha
  phytotoxicity rating ECHCG: 90
[14]; 125 g ai/ha
  phytotoxicity rating AMARE: 100
[14]; 500 g ai/ha
  phytotoxicity rating AMARE: 100
[15]; 125 g ai/ha
  phytotoxicity rating CHEAL: 100
[15]; 500 g ai/ha
  phytotoxicity rating CHEAL: 100
[16]; 125 g ai/ha
  phytotoxicity rating DIGSA: 100
[16]; 500 g ai/ha
  phytotoxicity rating DIGSA: 90
[17]; 125 g ai/ha
  phytotoxicity rating SORHA: 50
[17]; 500 g ai/ha
  phytotoxicity rating SORHA: 95
[18]; 125 g ai/ha
  phytotoxicity rating ABUTH: 70
[18]; 500 g ai/ha
  phytotoxicity rating ABUTH: 90
[19]; 125 g ai/ha
  phytotoxicity rating AMBEL: 50
[19]; 500 g ai/ha
  phytotoxicity rating AMBEL: 90
[20]; 125 g ai/ha
  phytotoxicity rating SETVI: 100
[20]; 500 g ai/ha
  phytotoxicity rating SETVI: 100
[21]; 125 g ai/ha
  phytotoxicity rating CASOB: 50
[21]; 500 g ai/ha
  phytotoxicity rating CASOB: 100
[22]; 125 g ai/ha
  phytotoxicity rating IPOHE: 30
[22]; 500 g ai/ha
  phytotoxicity rating IPOHE: 70
[23]; 63 g al/ha
  AMBEL phytotoxicity rating (0-100): 30
[23]; 500 g al/ha
  AMBEL phytotoxicity rating (0-100): 90
[24]; 63 g al/ha
  RICE crop damage rating (0-100): 40
[24]; 500 g al/ha
  RICE crop damage rating (0-100): 80
[25]; 63 g al/ha
  CORN crop damage rating (0-100): 10
[25]; 500 g al/ha
  CORN crop damage rating (0-100): 30
